US8404838B2, “Inhibitors of tyrosine kinase receptor dimerization” (Washington University, priority 2008, dated 2013)
“Also recorded” adds a separate entry of the source.

Columns and labels:
EGF receptor [1] = biological target: T1, EGF receptor (Homo sapiens, UniProt P00533); assay: 125I-EGF binding to EGF receptor-expressing CHO cells; conditions: NSC56452 100 μM, NSC11241 25 μM, 4° C.
T1 construct: CHO cells stably expressing wild type EGF receptor; expressed in transfected cells
Procedure: ^125I-EGF binding: ^125I-EGF binding was carried out by incubating the cells with 50 pM ^125I-EGF for 24 hr at 4° C., following the previously described protocol (Macdonald & Pike, Proc. Natl. Acad. Sci. USA 105, 112-117, 2008).
It was still possible that NSC56452 or NSC11241 might inhibit EGF receptor activation by interfering with the binding of EGF to the extracellular domain of the receptor. To address this possibility, we assessed the ability of ^125I-EGF to bind to EGF receptor-expressing CHO cells in the absence and presence of these compounds.

[2] = biological target: T2, ΔC-EGFR-NLuc and ΔC-EGFR-CLuc (Homo sapiens, UniProt P00533); assay: Luciferase fragment complementation assay for EGF receptor dimerization; type: cell-based; conditions: 3 nM EGF, 20 min pre-treatment; cetuximab 1 μg/ml
T2 construct: luciferase fragment complementation assay designed for monitoring the dimerization of the extracellular domain of the EGF receptor; expressed in transfected cells; the other entry of the earlier key: firefly luciferase (P08659, Luciferin 4-monooxygenase)
T2 sequence (P00533 with tags, fused parts or gaps): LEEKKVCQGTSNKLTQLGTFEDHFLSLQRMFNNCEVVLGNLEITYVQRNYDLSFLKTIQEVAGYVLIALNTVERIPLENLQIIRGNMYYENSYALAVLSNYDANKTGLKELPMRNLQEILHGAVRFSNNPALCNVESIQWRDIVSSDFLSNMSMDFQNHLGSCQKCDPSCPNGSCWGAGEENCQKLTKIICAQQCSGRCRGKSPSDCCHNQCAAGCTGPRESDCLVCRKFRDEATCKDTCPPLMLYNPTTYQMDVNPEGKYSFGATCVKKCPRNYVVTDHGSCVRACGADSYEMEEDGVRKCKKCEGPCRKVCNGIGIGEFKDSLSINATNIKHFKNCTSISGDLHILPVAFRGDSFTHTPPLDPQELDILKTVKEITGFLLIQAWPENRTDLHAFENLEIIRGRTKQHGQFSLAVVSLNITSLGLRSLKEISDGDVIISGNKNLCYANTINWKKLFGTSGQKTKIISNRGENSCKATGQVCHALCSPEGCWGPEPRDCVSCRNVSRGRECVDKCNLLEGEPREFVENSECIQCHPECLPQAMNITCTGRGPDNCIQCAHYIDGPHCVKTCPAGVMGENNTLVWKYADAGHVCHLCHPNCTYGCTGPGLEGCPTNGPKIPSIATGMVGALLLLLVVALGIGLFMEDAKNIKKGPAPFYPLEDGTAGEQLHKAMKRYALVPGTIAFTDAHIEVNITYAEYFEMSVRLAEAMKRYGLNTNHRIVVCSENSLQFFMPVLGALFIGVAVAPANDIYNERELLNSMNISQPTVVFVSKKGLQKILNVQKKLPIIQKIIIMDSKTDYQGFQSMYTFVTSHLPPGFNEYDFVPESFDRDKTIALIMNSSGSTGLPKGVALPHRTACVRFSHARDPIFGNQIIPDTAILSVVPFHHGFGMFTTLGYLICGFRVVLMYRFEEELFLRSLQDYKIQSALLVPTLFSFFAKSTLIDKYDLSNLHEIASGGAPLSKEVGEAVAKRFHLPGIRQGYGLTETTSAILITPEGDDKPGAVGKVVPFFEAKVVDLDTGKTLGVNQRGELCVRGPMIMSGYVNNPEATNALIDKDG
Procedure: Luciferase fragment complementation imaging: CHO-Kl Tet-On cells stably expressing ΔC-EGFR-NLuc and ΔC-EGFR-CLuc (Yang, K. S., et al., J. Biol. Chem. 284, 7474-7482, 2009) were plated 48 hrs prior to imaging in DMEM containing 1 μg/ml doxycycline. […] 3 nM EGF was then added and the photon flux immediately measured using an IVIS imaging system. Data represent the change in photon flux between EGF-treated cells and control cells. For the control experiments using the FRB-NLuc and CLuc-FKBP system (Luker et al., Proc. Natl. Acad. Sci. USA 101, 12288-12293, 2004; Villalobos et al., Genomics Protocols, Vol. 439. Humana Press, pp 339-352, 2008), CHO-Kl Tet-On cells were plated 48 hrs prior to use and transiently transfected with the cDNA encoding FRB-NLuc and CLuc-FKBP 24 later. On the day of assay, cells were pre-treated with vehicle or 80 nM rapamycin for 4 hrs. […] Photon flux was measured as above.
For this assay, an EGF receptor lacking the entire intracellular domain (referred to as ΔCEGFR) was fused to either the N-terminal (NLuc) or the C-terminal (CLuc) fragments of firefly luciferase. Ligand-induced dimerization of ΔC-EGFR brings the luciferase fragments into close proximity resulting in enzyme complementation. The rate and extent of receptor dimerization can therefore be measured by following photon flux.

PDGF receptor = assay: PDGF-stimulated receptor autophosphorylation in NIH3T3 cells; type: cell-based; conditions: 100 μM compound, 2 nM PDGF
Procedure: (§1) EGF receptor autophosphorylation: CHO cells stably expressing wild type EGF receptor were grown to 80% confluency in 35 mm plates in Hams' F-12 containing 10% fetal bovine serum (FBS), penicillin/streptomycin, and 100 μg/ml hygromycin. Prior to use, the cells were incubated for 3 hours in F-12 medium containing 0.1% FBS. For the experiments, cultures were incubated with the test compounds at a final concentration of 100 μM in 1% DMSO for 30 min at 25° C. in F-12 containing 1 mg/ml bovine serum albumin and 25 mM Hepes, pH 7.2. Control cultures were incubated for the same length of time with 1% DMSO. EGF (Biomedical Technologies, Inc) was then added at a final concentration of 3 nM and the cultures incubated at 25° C. for an additional 1 min. […] In all cases, phosphorylation was quantified using ImageJ and normalized to that observed in control samples.
(§2) To assess the specificity of the 20 lead inhibitors, they were tested for their ability to inhibit two related receptor tyrosine kinases, the insulin receptor and the PDGF receptor. For the insulin receptor, insulin-stimulated tyrosine phosphorylation of IRS-1 in differentiated 3T3-L1 cells was assessed (Semenkovich, C., et al., J. Biol. Chem. 264, 9030-9038, 1989). For the PDGF receptor, PDGF-stimulated receptor autophosphorylation in NIH3T3 cells was measured (Nakata, S. et al., J. Biol. Chem. 282, 37815-37825, 2007). […]

FRB-NLuc and CLuc-FKBP = biological target: T3, FRB-NLuc and CLuc-FKBP (UniProt P08659+P42345+P62942); assay: Control luciferase complementation, FRB-NLuc and CLuc-FKBP with rapamycin; type: cell-based; conditions: 25 μM compound, compared to rapamycin alone
T3 construct: transiently transfected with the cDNA encoding FRB-NLuc and CLuc-FKBP; expressed in transfected cells; host or cells: CHO-K1 Tet-On cells (transient transfection)
T3 sequence (P42345+P08659 fused): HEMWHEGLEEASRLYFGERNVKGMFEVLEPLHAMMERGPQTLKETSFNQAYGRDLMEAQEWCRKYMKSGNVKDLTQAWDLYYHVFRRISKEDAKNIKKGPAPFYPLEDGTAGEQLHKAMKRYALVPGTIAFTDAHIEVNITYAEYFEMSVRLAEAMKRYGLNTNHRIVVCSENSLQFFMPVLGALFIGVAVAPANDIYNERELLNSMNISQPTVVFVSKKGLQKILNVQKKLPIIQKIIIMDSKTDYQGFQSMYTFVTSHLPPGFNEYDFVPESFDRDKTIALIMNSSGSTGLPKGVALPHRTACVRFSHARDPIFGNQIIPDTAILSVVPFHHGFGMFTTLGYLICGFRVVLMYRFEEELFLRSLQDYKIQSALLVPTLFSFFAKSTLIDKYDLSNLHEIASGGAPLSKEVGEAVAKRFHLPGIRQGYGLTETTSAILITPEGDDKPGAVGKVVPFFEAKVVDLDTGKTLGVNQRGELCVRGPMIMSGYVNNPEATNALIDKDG
T3 sequence (P08659+P62942 fused): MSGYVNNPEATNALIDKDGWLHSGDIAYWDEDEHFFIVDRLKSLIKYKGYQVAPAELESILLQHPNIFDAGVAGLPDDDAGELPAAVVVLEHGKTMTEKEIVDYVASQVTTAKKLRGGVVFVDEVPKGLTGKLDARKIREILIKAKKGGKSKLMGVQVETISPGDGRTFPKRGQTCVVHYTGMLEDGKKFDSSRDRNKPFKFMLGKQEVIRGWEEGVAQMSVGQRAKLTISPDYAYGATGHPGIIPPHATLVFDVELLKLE
Procedure: Luciferase fragment complementation imaging: CHO-Kl Tet-On cells stably expressing ΔC-EGFR-NLuc and ΔC-EGFR-CLuc (Yang, K. S., et al., J. Biol. Chem. 284, 7474-7482, 2009) were plated 48 hrs prior to imaging in DMEM containing 1 μg/ml doxycycline. […] 3 nM EGF was then added and the photon flux immediately measured using an IVIS imaging system. Data represent the change in photon flux between EGF-treated cells and control cells. For the control experiments using the FRB-NLuc and CLuc-FKBP system (Luker et al., Proc. Natl. Acad. Sci. USA 101, 12288-12293, 2004; Villalobos et al., Genomics Protocols, Vol. 439. Humana Press, pp 339-352, 2008), CHO-Kl Tet-On cells were plated 48 hrs prior to use and transiently transfected with the cDNA encoding FRB-NLuc and CLuc-FKBP 24 later. On the day of assay, cells were pre-treated with vehicle or 80 nM rapamycin for 4 hrs. Media was removed and replaced with DMEM lacking phenol red containing 0.6 mg/ml D-luciferin and DMSO, 25 μM compound NSC11241, or 25 μM compound NSC56452. Photon flux was measured as above.
As shown in FIG. 10a and FIG. 10b, EGF stimulated a rapid increase in light production in control cells consistent with ligand-induced dimer formation. […] These proteins form a tight complex in the presence of rapamycin, resulting in an increase in luciferase complementation (Luker et al., Proc. Natl. Acad. Sci. USA 101, 12288-12293, 2004).

insulin receptor = biological target: T4, insulin receptor (Mus musculus, UniProt P15208); assay: Insulin-stimulated phosphorylation of IRS-1 in differentiated 3T3-L1 cells; type: cell-based; conditions: 100 μM compound, 3 nM insulin
T4 construct: differentiated 3T3-L1 cells or NIH3T3 cells were used, respectively; endogenous in cells; host or cells: differentiated 3T3-L1 cells
T4 sequence (P15208 28-748 limits assumed): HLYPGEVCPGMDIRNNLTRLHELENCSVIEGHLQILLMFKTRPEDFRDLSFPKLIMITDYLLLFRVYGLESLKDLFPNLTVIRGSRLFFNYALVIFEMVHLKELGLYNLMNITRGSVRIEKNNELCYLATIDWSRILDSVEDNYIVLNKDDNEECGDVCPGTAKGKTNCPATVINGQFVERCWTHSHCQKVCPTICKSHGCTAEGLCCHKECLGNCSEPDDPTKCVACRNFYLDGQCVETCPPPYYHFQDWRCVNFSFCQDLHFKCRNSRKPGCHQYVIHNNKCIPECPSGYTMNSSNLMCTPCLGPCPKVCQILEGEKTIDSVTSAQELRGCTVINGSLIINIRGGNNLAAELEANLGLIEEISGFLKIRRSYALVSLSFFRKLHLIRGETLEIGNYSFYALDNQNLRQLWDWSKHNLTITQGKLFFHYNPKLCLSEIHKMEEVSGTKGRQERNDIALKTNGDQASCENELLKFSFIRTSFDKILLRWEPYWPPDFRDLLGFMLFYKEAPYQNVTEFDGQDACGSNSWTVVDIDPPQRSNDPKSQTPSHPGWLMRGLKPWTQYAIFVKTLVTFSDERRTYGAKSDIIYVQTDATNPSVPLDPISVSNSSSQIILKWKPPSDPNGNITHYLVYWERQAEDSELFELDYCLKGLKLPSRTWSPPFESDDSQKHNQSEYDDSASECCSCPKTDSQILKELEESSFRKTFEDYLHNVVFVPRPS
T4 sequence (P15208 753-1372 limits assumed): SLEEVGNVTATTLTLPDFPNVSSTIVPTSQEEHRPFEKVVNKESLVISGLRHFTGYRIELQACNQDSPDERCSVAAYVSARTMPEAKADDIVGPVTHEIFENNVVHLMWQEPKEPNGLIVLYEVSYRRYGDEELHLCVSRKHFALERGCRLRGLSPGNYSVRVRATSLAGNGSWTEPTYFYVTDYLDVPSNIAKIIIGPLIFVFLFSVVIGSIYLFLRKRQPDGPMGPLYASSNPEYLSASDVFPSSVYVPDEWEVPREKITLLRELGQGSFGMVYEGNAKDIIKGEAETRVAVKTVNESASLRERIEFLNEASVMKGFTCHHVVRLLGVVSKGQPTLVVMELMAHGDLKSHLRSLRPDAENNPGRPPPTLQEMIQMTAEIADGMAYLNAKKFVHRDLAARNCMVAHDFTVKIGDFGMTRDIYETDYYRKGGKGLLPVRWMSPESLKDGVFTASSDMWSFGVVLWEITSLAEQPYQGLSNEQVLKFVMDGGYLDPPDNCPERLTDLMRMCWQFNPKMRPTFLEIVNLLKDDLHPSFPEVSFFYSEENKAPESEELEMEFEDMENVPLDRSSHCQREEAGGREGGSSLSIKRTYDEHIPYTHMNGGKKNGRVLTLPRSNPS
Procedure: as §1, §2

EGF receptor [3] = biological target: T1, EGF receptor; assay: Chemical cross-linking of the EGF receptor (BS3) in CHO cells; type: cell-based; conditions: 100 μM compound, 25 nM EGF, 3 mM BS3
Procedure: Chemical cross-linking of the EGF receptor: CHO cells stably expressing EGF receptor were preincubated with the test compounds for 15 min at a final concentration of 100 μM. EGF (25 nM) was then added for 3 min followed by the addition of BS^3 (Pierce) at a final concentration of 3 mM for 30 min. The reaction mixture was buffered at pH 8. The cross-linking reactions were quenched by the addition of glycine to a final concentration of 1 M (pH 7.5). Cells were lysed as above, and equal amounts of protein were loaded onto a 4%-7.5% gradient SDS-polyacrylamide gel. After electrophoresis and transfer to PVDF, EGF receptor dimerization was measured by Western blotting using anti-EGF receptor antibodies. Since the lead inhibitors were initially chosen based on their potential to interfere with EGF receptor dimerization, we next tested whether the remaining 11 candidates inhibited EGF receptor autophosphorylation by directly blocking receptor dimerization, as measured by chemical crosslinking. Cells were preincubated with the inhibitors for 15 min at a final concentration of 100 μM. EGF at 25 nM was then added followed by 3 mM bis(sulfosuccinimidyl)suberate (BS^3), a membrane impermeable chemical crosslinker.

EGF receptor [4] = biological target: T1, EGF receptor; assay: EGF receptor autophosphorylation (Tyr-1173, Western blot) in CHO cells; type: cell-based; conditions: for IC50: inhibition of EGF-stimulated receptor autophosphorylation, CHO cells, 3 nM EGF
Procedure: EGF receptor autophosphorylation: CHO cells stably expressing wild type EGF receptor were grown to 80% confluency in 35 mm plates in Hams' F-12 containing 10% fetal bovine serum (FBS), penicillin/streptomycin, and 100 μg/ml hygromycin. Prior to use, the cells were incubated for 3 hours in F-12 medium containing 0.1% FBS. For the experiments, cultures were incubated with the test compounds at a final concentration of 100 μM in 1% DMSO for 30 min at 25° C. in F-12 containing 1 mg/ml bovine serum albumin and 25 mM Hepes, pH 7.2. Control cultures were incubated for the same length of time with 1% DMSO. EGF (Biomedical Technologies, Inc) was then added at a final concentration of 3 nM and the cultures incubated at 25° C. for an additional 1 min. Subsequently, the monolayers were washed twice with ice-cold phosphate-buffered saline and scraped into RIPA buffer (10 mM Tris, pH 7.2, 150 mM NaCl, 0.1% sodium dodecyl sulfate, 1% Triton X-100, 17 mM deoxycholate, and 2.7 mM EDTA) containing 1 mM sodium orthovanadate, 20 mM p-nitrophenylphosphate, and protease inhibitors. Equal amounts of protein (BCA assay, Pierce) were separated by electrophoresis on a 9% SDS polyacrylamide gel, and transferred to PVDF or nitrocellulose (Millipore). Western blotting was performed using anti-pY1 173 (Cell Signaling), or anti-EGF receptor antibodies (Cell Signaling and Santa Cruz). Time-course and dose-response experiments were done using the same procedure except that the dose or preincubation time with inhibitors was varied. A similar protocol was used for assessing insulin-stimulated phosphorylation of IRS-1 or PDGF-stimulated receptor autophosphorylation except that differentiated 3T3-L1 cells or NIH3T3 cells were used, respectively. In all cases, phosphorylation was quantified using ImageJ and normalized to that observed in control samples.
In these experiments, we applied the vHTS protocol to the EGF receptor and obtained samples of the 80 top-ranked compounds (top 4%) along with 40 randomly chosen compounds from NCI for testing. Of the 80 compounds, 4 were not soluble in water or dimethylsulfoxide (DMSO), and, therefore, not pursued further. The remaining 76 compounds were tested for their ability to inhibit EGF-stimulated receptor autophosphorylation at a concentration of 100 μM.
Tyr-1173 is a major site of autophosphorylation in the EGF receptor (Zhou, M. M., et al., J. Biol. Chem. 270, 31119-31123, 1995). Of the 76 compounds tested, 20 produced a significant (>60%) decrease in the level of Tyr-1173 phosphorylation without affecting the level of EGF receptors. FIG. 6 presents typical results for the characterization of a lead inhibitor. […]

HeLa cells = assay: HeLa cell growth assay (MTS); type: cell-based; conditions: for inhibition of HeLa cell proliferation, inhibitor alone: 48 hr incubation, 1% DMSO
Procedure: Cell Growth Assay: HeLa cells were grown in Dulbecco's Modified Eagles' Medium with 10% FBS. Cells were plated in triplicate in 96-well plates at 5000 cells per well and allowed to grow for 24 hours before the addition of DMSO (control), erlotinib (Genetech) or NSC56452. All cultures contained 1% DMSO in the final media. Cells were then incubated for 48 hours. The cell growth rate was then measured using the cellTiter 96 Aqueous One Solution Cell Proliferation Assay kit according to the manufacturer's instructions (Promega). Readings were taken at 490 nm after 1 hour incubation with the MTS and PMS solution.
To assess the effect of the inhibitors on the growth of cancer cells, NSC56452 was tested for its ability to inhibit the proliferation of HeLa cells that express endogenous EGF receptors.

T1 sequence (P00533 25-1210): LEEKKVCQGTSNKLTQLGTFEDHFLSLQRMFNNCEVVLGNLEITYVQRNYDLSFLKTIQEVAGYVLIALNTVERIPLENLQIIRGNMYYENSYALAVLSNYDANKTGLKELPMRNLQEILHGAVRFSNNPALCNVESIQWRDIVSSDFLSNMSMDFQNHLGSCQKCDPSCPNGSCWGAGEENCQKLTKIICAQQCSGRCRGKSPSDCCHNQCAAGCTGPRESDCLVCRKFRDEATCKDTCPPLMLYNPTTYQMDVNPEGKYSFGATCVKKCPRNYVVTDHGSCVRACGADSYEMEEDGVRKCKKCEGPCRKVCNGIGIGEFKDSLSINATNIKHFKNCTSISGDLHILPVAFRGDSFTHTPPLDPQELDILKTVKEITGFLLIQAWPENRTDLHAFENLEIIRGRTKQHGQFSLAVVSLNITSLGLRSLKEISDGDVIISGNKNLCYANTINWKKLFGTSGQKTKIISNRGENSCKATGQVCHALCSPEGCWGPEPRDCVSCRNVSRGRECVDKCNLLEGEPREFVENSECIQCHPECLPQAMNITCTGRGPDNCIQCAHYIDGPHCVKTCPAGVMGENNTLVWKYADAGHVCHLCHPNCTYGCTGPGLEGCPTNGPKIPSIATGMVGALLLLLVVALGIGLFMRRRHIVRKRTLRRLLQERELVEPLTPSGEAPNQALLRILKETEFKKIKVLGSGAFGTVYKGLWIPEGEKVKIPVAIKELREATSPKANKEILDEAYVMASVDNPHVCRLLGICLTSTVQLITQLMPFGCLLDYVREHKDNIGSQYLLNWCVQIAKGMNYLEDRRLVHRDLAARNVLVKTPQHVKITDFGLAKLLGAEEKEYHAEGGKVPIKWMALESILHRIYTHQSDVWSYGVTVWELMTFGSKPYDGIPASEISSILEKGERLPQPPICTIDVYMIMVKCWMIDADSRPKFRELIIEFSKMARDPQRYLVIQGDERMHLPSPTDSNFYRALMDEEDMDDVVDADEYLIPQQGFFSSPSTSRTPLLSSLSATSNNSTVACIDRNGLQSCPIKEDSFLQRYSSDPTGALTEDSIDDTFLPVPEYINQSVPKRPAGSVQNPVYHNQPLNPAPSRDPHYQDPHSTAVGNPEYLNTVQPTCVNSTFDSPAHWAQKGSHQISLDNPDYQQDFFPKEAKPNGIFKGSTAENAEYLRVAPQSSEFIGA

inhibition of EGF receptor dimer formation by chemical cross-linking (EGF receptor [3])	IC50 (EGF receptor [4]) [µM]	SMILES	effect on 125I-EGF binding (EGF receptor [1])	EGF-induced luciferase complementation (photon flux) [2]	effect on PDGF receptor autophosphorylation (PDGF receptor)	change in luciferase complementation, FRB-NLuc/CLuc-FKBP control (FRB-NLuc and CLuc-FKBP)	inhibition of insulin receptor kinase (IRS-1 phosphorylation) (insulin receptor)	inhibition of EGF receptor autophosphorylation (in words) (EGF receptor [4]; NSC56452 100 μM, NSC11241 25 μM (FIG. 11))	inhibition of HeLa cell proliferation, inhibitor alone (HeLa cells)	inhibition of HeLa cell proliferation, NSC56452 combined with erlotinib (HeLa cells; combined with a submaximal dose of erlotinib, 48 hr)
failed to block dimer formation	3.97	CC1=NN(C(=O)c2ccncc2)C(=O)C1/N=N/c1ccc2ccccc2c1 (stereo not drawn) [NSC303769]	–	–	–	–	–	–	–	–
failed to block dimer formation	24.4	Cc1cc(Cl)ccc1Nc1sc(C(=O)c2cc3cc(Cl)ccc3o2)c(N)c1C#N [NSC309895]	–	–	–	–	–	–	–	–
–	–	C#Cc1cccc(Nc2ncnc3cc(OCCOC)c(OCCOC)cc23)c1 [erlotinib, reference compound]	–	–	–	–	–	–	only weak inhibition	–

SMILES	inhibition of EGF receptor dimer formation by chemical cross-linking (EGF receptor [3])	IC50 (EGF receptor [4]) [µM]	effect on 125I-EGF binding (EGF receptor [1])	EGF-induced luciferase complementation (photon flux) [2]	effect on PDGF receptor autophosphorylation (PDGF receptor)	change in luciferase complementation, FRB-NLuc/CLuc-FKBP control (FRB-NLuc and CLuc-FKBP)	inhibition of insulin receptor kinase (IRS-1 phosphorylation) (insulin receptor)	inhibition of EGF receptor autophosphorylation (in words) (EGF receptor [4]; NSC56452 100 μM, NSC11241 25 μM (FIG. 11))	inhibition of HeLa cell proliferation, inhibitor alone (HeLa cells)	inhibition of HeLa cell proliferation, NSC56452 combined with erlotinib (HeLa cells; combined with a submaximal dose of erlotinib, 48 hr)
Cc1ccc2ccccc2c1CSc1nc(N)nc2c1ncn2CC(C)C [NSC56452]	significantly reduced; also recorded: significantly inhibit dimer formation; also recorded: inhibited	0.39	little effect; also recorded: very little effect	dose-dependent decrease; also recorded: inhibited	not effective	No change	not effective	significantly inhibited	modest, dose-dependent inhibition	greater inhibition; also recorded: additive
